In patent US12258329B2 (Merck Sharp & Dohme LLC, priority 2018, dated 2025):
Read-outs that look alike come from different tables or passages of the source.

Test system: infected PBMCs (VSV-G pseudotyped HIV virus VSV-G/pNLG1-P2A-ΔEnv)
Test: cells
Type: cell-based, human
Conditions: read-out: TACK EC50

| SMILES | EC50 (Homo sapiens, PBMC) [nM] | EC50 [nM] |
| --- | --- | --- |
| COC(=O)CCc1nc(C)c(Cn2cnc(C(F)(F)C(F)(F)F)c(Oc3cc(Cl)cc(C#N)c3F)c2=O)c(=O)[nH]1 [Example 56, Methyl 3-(5-((5-(5-chloro-3-cyano-2-fluorophenoxy)-6-oxo-4-(perfluoroethyl)pyrimidin-1 (6H)-yl)methyl)-4-methyl-6-oxo-1,6-dihydropyrimidin-2-yl)propanoate] | 161 | – |
| Cc1cc(C#N)c(C)c(Oc2c(Br)ncn(Cc3c(C)nc(C)[nH]c3=O)c2=O)c1 [Example 26, 3-((4-bromo-1-((2,4-dimethyl-6-oxo-1,6-dihydropyrimidin-5-yl)methyl)-6-oxo-1,6-dihydropyrimidin-5-yl)oxy)-2,5-dimethylbenzonitrile] | 413 | – |
| Cc1nc(C)c(Cn2cnc(C(F)(F)C(F)(F)F)c(Oc3cccc(C#N)c3C)c2=O)c(=O)[nH]1 [Example 74, 3-((1-((2,4-dimethyl-6-oxo-1,6-dihydropyrimidin-5-yl)methyl)-6-oxo-4-(perfluoroethyl)-1,6-dihydropyrimidin-5-yl)oxy)-2-methylbenzonitrile] | 484 | – |
| Cc1nc(C)c(Cn2cnc(C(F)(F)C(F)(F)F)c(Oc3c(Cl)cc(C#N)cc3Cl)c2=O)c(=O)[nH]1 [Example 96, 3,5-dichloro-4-((1-((2,4-dimethyl-6-oxo-1,6-dihydropyrimidin-5-yl)methyl)-6-oxo-4-(perfluoroethyl)-1,6-dihydropyrimidin-5-yl)oxy)benzonitrile] | 367 | – |
| COc1cc(C#N)cc(C)c1Oc1c(C(F)(F)C(F)(F)F)ncn(Cc2c(C)nc(C)[nH]c2=O)c1=O [Example 76, 4-((1-((2,4-dimethyl-6-oxo-1,6-dihydropyrimidin-5-yl)methyl)-6-oxo-4-(perfluoroethyl)-1,6-dihydropyrimidin-5-yl)oxy)-3-methoxy-5-methylbenzonitrile] | 498 | – |
| Cc1nc(C)c(Cn2cnc(C(C)F)c(Oc3cc(C(F)F)cc(C#N)c3F)c2=O)c(=O)[nH]1 (single isomer, unassigned) [Example 32, (S) or (R)-5-(difluoromethyl)-3-((1-((2,4-dimethyl-6-oxo-1,6-dihydropyrimidin-5-yl)methyl)-4-(1-fluoroethyl)-6-oxo-1,6-dihydropyrimidin-5-yl)oxy)-2-fluorobenzonitrile] | 171 | – |
| Cc1nc(N)c(Cn2cnc(C(F)(F)C(F)F)c(Oc3cc(C(F)F)cc(C#N)c3C)c2=O)c(=O)[nH]1 [Example 59, 3-((1-((4-amino-2-methyl-6-oxo-1,6-dihydropyrimidin-5-yl)methyl)-6-oxo-4-(1,1,2,2-tetrafluoroethyl)-1,6-dihydropyrimidin-5-yl)oxy)-5-(difluoromethyl)-2-methylbenzonitrile] | 135 | – |
| COc1c(C#N)cc(C(F)F)cc1Oc1c(C(C)F)ncn(Cc2c(C)nc(C)[nH]c2=O)c1=O (single isomer, unassigned) [Example 35] | – | 351 |
| Cc1nc(C)c(Cn2cnc(C(F)(F)F)c(Oc3cc(C(F)F)cc(C#N)c3C)c2=O)c(=O)[nH]1 [Example 8, 5-(difluoromethyl)-3-((1-((2,4-dimethyl-6-oxo-1,6-dihydropyrimidin-5-y1)methyl)-6-oxo-4-(trifluoromethyl)-1,6-dihydropyrimidin-5-y1)oxy)-2-methylbenzonitrile] | 252 | – |
| Cc1nc(C)c(Cn2cnc(C(F)(F)F)c(Oc3cc(Cl)cc(C#N)c3F)c2=O)c(=O)[nH]1 [Example 92, 5-chloro-3-((1-((2,4-dimethyl-6-oxo-1,6-dihydropyrimidin-5-yl)methyl)-6-oxo-4-(trifluoromethyl)-1,6-dihydropyrimidin-5-yl)oxy)-2-fluorobenzonitrile] | 284 | – |
| Cc1nc(C)c(Cn2cnc(C(C)(F)F)c(Oc3cc(Cl)cc(C#N)c3Cl)c2=O)c(=O)[nH]1 [Example 3, 2,5-dichloro-3-((4-(1,1-difluoroethyl)-1-((2,4-dimethyl-6-oxo-1,6-dihydropyrimidin-5-yl)methyl)-6-oxo-1,6-dihydropyrimidin-5-yl)oxy)benzonitrile] | 417 | – |
| Cc1nc(C)c(Cn2cnc(C(C)(F)F)c(Oc3c(C)cc(C#N)cc3C)c2=O)c(=O)[nH]1 [Example 11, 4-((4-(1,1-difluoroethyl)-1-((2,4-dimethyl-6-oxo-1,6-dihydropyrimidin-5-yl)methyl)-6-oxo-1,6-dihydropyrimidin-5-yl)oxy)-3,5-dimethylbenzonitrile] | 267 | – |
| Cc1cc(C#N)c(F)c(Oc2c(C(C)(F)F)ncn(Cc3c(C)nc(C)[nH]c3=O)c2=O)c1 [Example 41, 3-((4-(1,1-difluoroethyl)-1-((2,4-dimethyl-6-oxo-1,6-dihydropyrimidin-5-yl)methyl)-6-oxo-1,6-dihydropyrimidin-5-yl)oxy)-2-fluoro-5-methylbenzonitrile] | 363 | – |
| Cc1nc(C)c(Cn2cnc(C(F)(F)C(F)(F)F)c(Oc3c(C)cc(C#N)cc3C)c2=O)c(=O)[nH]1 [Example 78, 4-((1-((2,4-dimethyl-6-oxo-1,6-dihydropyrimidin-5-yl)methyl)-6-oxo-4-(perfluoroethyl)-1,6-dihydropyrimidin-5-yl)oxy)-3,5-dimethylbenzonitrile] | 156 | – |
| Cc1nc(C)c(Cn2cnc(C(F)(F)C(F)(F)F)c(Oc3cc(C#N)cc(C(F)F)c3)c2=O)c(=O)[nH]1 [Example 84] | 291 | – |
| COCc1nc(C)c(Cn2cnc(C(F)(F)C(F)F)c(Oc3cc(C(F)F)cc(C#N)c3C)c2=O)c(=O)[nH]1 [Example 51, 5-(difluoromethyl)-3-((1-((2-(methoxymethyl)-4-methyl-6-oxo-1,6-dihydropyrimidin-5-yl)methyl)-6-oxo-4-(1,1,2,2-tetrafluoroethyl)-1,6-dihydropyrimidin-5-yl)oxy)-2-methylbenzonitrile] | 395 | – |
| Cc1nc(C)c(Cn2cnc(C(C)F)c(Oc3cc(C(F)F)cc(C#N)c3C)c2=O)c(=O)[nH]1 (single isomer, unassigned) [Example 28] | 208 | – |
| Cc1nc(C(C)O)[nH]c(=O)c1Cn1cnc(C(F)(F)C(F)F)c(Oc2cc(C(F)F)cc(C#N)c2C)c1=O (single isomer, unassigned) [Example 54, 5-(difluoromethyl)-3-((1-((2-(1-hydroxyethyl)-4-methyl-6-oxo-1,6-dihydropyrimidin-5-yl)methyl)-6-oxo-4-(1,1,2,2-tetrafluoroethyl)-1,6-dihydropyrimidin-5-yl)oxy)-2-methylbenzonitrile] | – | 213 |
| Cc1nc(C)c(Cn2cnc(C(F)(F)C(F)F)c(Oc3c(C)cc(C#N)cc3C)c2=O)c(=O)[nH]1 [Example 75, 4-((1-((2,4-dimethyl-6-oxo-1,6-dihydropyrimidin-5-yl)methyl)-6-oxo-4-(1,1,2,2-tetrafluoroethyl)-1,6-dihydropyrimidin-5-yl)oxy)-3,5-dimethylbenzonitrile] | 209 | – |
| Cc1nc(C)c(Cn2cnc(C(F)(F)C(F)(F)F)c(Oc3cc(Br)cc(C#N)c3)c2=O)c(=O)[nH]1 [Example 86, 3-bromo-5-((1-((2,4-dimethyl-6-oxo-1,6-dihydropyrimidin-5-yl)methyl)-6-oxo-4-(perfluoroethyl)-1,6-dihydro-pyrimidin-5-yl)oxy)benzonitrile] | 473 | – |
| Cc1nc(C)c(Cn2cnc(C(F)(F)C(F)F)c(Oc3cc(C(F)F)cc(C#N)c3Cl)c2=O)c(=O)[nH]1 [Example 21, 2-chloro-5-(difluoromethyl)-3-((1-((2,4-dimethyl-6-oxo-1,6-dihydropyrimidin-5-yl)methyl)-6-oxo-4-(1,1,2,2-tetrafluoroethyl)-1,6-dihydropyrimidin-5-yl)oxy)benzonitrile] | 132 | – |
